A short description of series [1]: Miscibility of film-forming agent with physiological saline solution (uniformity of solution). The following applies: film-forming agent mixed with same weight of physiological saline solution 9 g/L, room temperature, shaken 20 seconds, macroscopically checked. Type of series: physicochemical. How it is done: The film-forming agent must be soluble in water. Preferably, at least 5% by weight of the agent are soluble in water. More preferably, it is soluble in water in any ratio. In addition, the water-soluble film-forming agent must be miscible with a physiological saline solution. Whether the film-forming agent is miscible with a physiological saline solution or not can be determined from its phase diagram. […] The uniformity of the resulting solution is determined. Accordingly, the miscibility of the film-forming agent with a physiological saline solution can be determined in a simple manner.
About 1 g of the film-forming agent shown in Table 1 below was metered into a 5 ml glass bottle, and a physiological saline solution with a concentration of 9 g/L of which the weight was the same as that of the film-forming agent was put into the glass bottle, and shaken at room temperature for 20 seconds. The resulting mixture was macroscopically checked as to whether or not it could be a uniform solution.

The nature of series [2]: Measurement of pH of acid. The format is physicochemical. To be noted: one part by weight of acid in 99 parts by weight of distilled water. How it is done:
One part by weight of the acid to be measured is mixed with 99 parts by weight of distilled water, and the pH of the resulting mixture is measured with a pH meter (Iuchi's pH meter).

The nature of series [3]: Solubility of calcium salt of acid in film-forming agent.
Protocol: Next, powdery calcium carbonate (0.1 mmols) is fed into the test tube, and stirred at room temperature for 10 minutes so that it is reacted with the acid to give a calcium salt of the acid. Next, the resulting solution is dried in a drier at 60° C. for 16 hours to remove water, and the 1 ml of a film-forming agent is added to the resulting residue. This is stirred at room temperature for 30 minutes, and the resulting solution is macroscopically checked as to whether it is clear or cloudy. The solubility of the calcium salt in the clear solution is above 0.1 M/L, and the acid is marked “x”.
To the cloudy solution in the test tube, 9 ml of the film-forming agent is further added, and stirred at room temperature for 30 minutes. This is again checked macroscopically. […] When it is still cloudy in this condition, the solubility of the calcium salt is below 0.01 M/L, and the acid is marked “O”. For easily-available calcium salts of acids, such as calcium chloride. calcium nitrate and others, they are not produced in the manner as above, but commercial products are used to measure their solubility.
The nature of series [4]: Solubility of a calcium salt of an acid in water. To be noted: for Calcium Salt of Acid: Solubility in water: room temperature, macroscopic check clear or cloudy.
Protocol: Next, powdery calcium carbonate (0.1 mmols) is fed into the test tube, and stirred at room temperature for 10 minutes so that it is reacted with the acid. The resulting solution is macroscopically checked as to whether it is clear or cloudy. The solubility of the calcium salt in the clear solution is above 0.1 M/L, and the acid is marked “x”.
To the cloudy solution in the test tube, 9 ml of distilled water is further added, and stirred at room temperature for 30 minutes. This is again checked macroscopically. […] When it is still cloudy in this condition, the solubility of the calcium salt is below 0.01 M/L, and the acid is marked “O”. In case where the solubility of the calcium salt of the acid tested is numerically represented, test tubes having a proper capacity are prepared, and the process as above is repeated in them. Salt solutions having different concentrations are prepared, and they are macroscopically checked to quantitatively determine the solubility of the salt.
Where [5] appears, read: film-forming agent 90% by weight HEMA and 10% by weight BMHPE (Table 2).
[6] abbreviates: film-forming agent 65% HEMA, 30% BMHPE, 5% Bis-GMA (Table 3).

Take `C=C(C)C(=O)OCC(O)CO` (centres unmarked) [GLM, glycerol monomethacrylate]: in series [1], the “Solubility (Uniformity of Reference Solutions)” value was “dissolved”.

“monomethacrylate of polyethylene glycol 200 [PE-200-OH]”: in series [1], the “Solubility (Uniformity of Reference Solutions)” value is reported as “dissolved”.

As for “8-methacryloyloxyoctyl phosphate [Example 8MOP]”, the “pH of Acid” value in series [2] came to 2.2.

For the compound `O=S(=O)(O)O` [sulfuric acid], the “pH of Acid” value in series [2] is given as 1.1.

Take `Cc1ccc(S(=O)(=O)O)cc1` [TSA, p-toluenesulfonic acid, reference compound]: the “Calcium Salt of Acid: Solubility in Film-forming Agent” value (“Calcium Salt … in Film-forming Agent” below) in series [3] (setting [5]) is reported as “◯”. Further, in series [2], the “pH of Acid” value turned out to be 1.4. Further, the “solubility of the calcium salt of the acid in water (in words)” value in series [4] (description, acid used in place of the polymerizable compound having an acid group) is listed as “too high”.

Regarding `C=C(C)C(=O)OCCOP(=O)(O)O` [Example 2MEP, 2-methacryloyloxyethyl phosphate], in series [3] (setting [5]), the “Calcium Salt … in Film-forming Agent” value is “◯”. Further, in series [2], the “pH of Acid” value came to 1.7. The “Calcium Salt of Acid: Solubility in water” value in series [4] is “◯”.

In the case of `C=C(C)C(=O)OCCCCCCCCCCOP(=O)(O)O` [Example 10MDP, 10-methacryloyloxydecyl phosphate], the “Calcium Salt … in Film-forming Agent” value in series [3] (setting [6]) and in series [3] (setting [5]) was “◯” throughout. Besides, the “pH of Acid” value in series [2] stood at 2.3. In series [4] (numerical value), the “solubility in water of calcium salt” value came to 0.0003 M/L. Further, the “Calcium Salt of Acid: Solubility in water” value in series [4] is recorded as “◯”.

On to `O=P(O)(O)O` [phosphoric acid], for which the “pH of Acid” value in series [2] was 1.6.

Turning to `C=C(C)C(=O)OCCCO` [HPMA, hydroxypropyl methacrylate], in series [1], the “Solubility (Uniformity of Reference Solutions)” value is given as “not dissolved”.

On to “9-methacryloyloxynonyl phosphate [Example 9MNP]”, for which the “Calcium Salt … in Film-forming Agent” value in series [3] (setting [6]) and in series [3] (setting [5]) was “◯” throughout. Also, the “pH of Acid” value in series [2] is listed as 2.2. In series [4], the “Calcium Salt of Acid: Solubility in water” value is “◯”.

Consider “phenyl-2-methacryloyloxyethyl phosphate [PMEP]”, for which the “pH of Acid” value in series [2] was found to be 1.7.

As to `C=C(C)C(=O)OCC(O)COCCOCC(O)COC(=O)C(=C)C` (centres unmarked) [BMHPE, 1,2-bis(3-methacryloxy-2-hydroxypropoxy)ethane], the “Solubility (Uniformity of Reference Solutions)” value in series [1] is on record as “not dissolved”.

With `O=[N+]([O-])O` [nitric acid], the “pH of Acid” value in series [2] is 0.9.

For the compound “dimethacrylate of polyethylene glycol 200 [PE-200-OMR]”, the “Solubility (Uniformity of Reference Solutions)” value in series [1] is given as “not dissolved”.

“12-methacryloyloxydodecyl phosphate [Example 12MLP]”: the “Calcium Salt … in Film-forming Agent” value in series [3] (setting [6]) and in series [3] (setting [5]) was “◯” each time. In addition, the “pH of Acid” value in series [2] turned out to be 2.3. For the same compound, in series [4], the “Calcium Salt of Acid: Solubility in water” value is “◯”.

Regarding `Cl` [hydrochloric acid], the “pH of Acid” value in series [2] turned out to be 0.9.

For the compound `C=C(C)C(=O)O` [MRA, methacrylic acid, reference compound], the “Calcium Salt … in Film-forming Agent” value in series [3] (setting [5]) is “◯”. Further, the “pH of Acid” value in series [2] turned out to be 2.9.

In the case of `O=C(O)C(=O)O` [oxalic acid], the “pH of Acid” value in series [2] was found to be 1.3.

On to `C=C(C)C(=O)OCCO` [HEMA, hydroxyethyl methacrylate], for which, in series [1], the “Solubility (Uniformity of Reference Solutions)” value is recorded as “dissolved”.

As for `O=C(O)CC(O)(CC(=O)O)C(=O)O` [citric acid], in series [2], the “pH of Acid” value is given as 1.6.

For the origin of these results see US6750268B2, “Bonding composition” (Kuraray Co., Ltd., priority 1999, dated 2004).
